In the experiment the target is T1, N-terminal HiBiT tagged BCL-XL (Homo sapiens, UniProt Q07817).
T1 construct: expressed in transfected cells; host or cells: HT-1080 (ATCC CCL-121) cells stably transduced with lentivirus pLV-UBC-N-HiBiT-BCL-XL-PGK-puro
Description: HiBiT based degradation assay. The experiment is classed as cell-based. To be noted: HT1080 cells expressing N-terminal HiBiT tagged BCL-XL, BCL-XL level normalized with DMSO control. From the text:
Human BCL-XL protein coding open reading frame fused with N-terminal HiBiT coding sequence was synthesized from Integrated DNA Technologies (IDT). Next, N-HiBiT-BCL-XL sequence was cloned into pLV-UBC-PGK-Puro, a lentivirus plasmid purchased from Vectorbuilder, to generate pLV-UBC-N-HiBiT-BCL-XL-PGK-puro. Lentiviral particles were generated from Lenti-X™ 293T cells (Clontech) by co-transfection of pLV-UBC-N-HiBiT-BCL-XL-PGK-puro plasmids and lentiviral packaging plasmid mix (Cellecta). HT-1080 [HT1080](ATCC CCL-121) cells were infected with the lentivirus, and HT1080 cells stably integrated with the lentiviral vectors were established by incubation with […] puromycin (Thermofisher).
HT1080 cells expressing N-terminal HiBiT tagged BCL-XL were dispensed into a 384-well plate pre-spotted with compounds at varying concentrations. Three thousand cells were seeded into each well in 40 μL of RPMI 1640 media. […] After incubation, luminescence was read on a PHERAstar FSX Plate Reader (BMG). BCL-XL degradation at each indicated concentration was normalized with the DMSO control. The BCL-XL degradation curves were plotted using a four-parameter logistic model. For compounds displaying hook effects, the curve fitting was performed using the bottom point of the hook curves (i.e., the point of Ymin) as the bottom plateau to calculate EC50.
On the technique in general: The HiBiT peptide binds its large partner to form an active luciferase.

We go through 15 molecules from patent US20250282771A1, “TETRAHYDROISOQUINOLINE HETEROBIFUNCTIONAL BCL-XL DEGRADERS” (Treeline Biosciences, Inc., priority 2022, published 2025).

T1 sequence (Q07817 whole entry): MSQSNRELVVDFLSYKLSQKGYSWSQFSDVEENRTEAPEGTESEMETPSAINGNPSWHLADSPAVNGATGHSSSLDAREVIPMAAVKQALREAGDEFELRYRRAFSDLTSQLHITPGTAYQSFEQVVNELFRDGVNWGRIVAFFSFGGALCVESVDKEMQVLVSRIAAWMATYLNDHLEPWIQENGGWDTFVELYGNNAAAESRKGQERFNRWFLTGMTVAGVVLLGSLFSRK

Turning to `Cc1c(OCCC[C@@H]2CCN(CC(=O)N3CCN(c4cc5c(cc4F)C(=O)N(C4CCC(=O)NC4=O)C5=O)CC3)CC2(F)F)cccc1-c1ccc(N2CCc3cccc(C(=O)Nc4nc5ccccc5s4)c3C2)nc1C(=O)O` (stereo partly drawn) [Compound 120a, 6-(8-(benzo[d]thiazol-2-ylcarbamoyl)-3,4-dihydroisoquinolin-2(1H)-yl)-3-(3-(3-((4R)-1-(2-(4-(2-(2,6-dioxopiperidin-3-yl)-6-fluoro-1,3-dioxoisoindolin-5-yl)piperazin-1-yl)-2-oxoethyl)-3,3-difluoropiperidin-4-yl)propoxy)-2-methylphenyl)picolinic acid], the “Ymin (24 h)” value is recorded as “B (50% ≤ Ymin < 70%)”.

`Cc1c(OCCC[C@H]2CCN(CC(=O)N3CCN(c4cc5c(cc4F)C(=O)N(C4CCC(=O)NC4=O)C5=O)CC3)CC2(F)F)cccc1-c1ccc(N2CCc3cccc(C(=O)Nc4nc5ccccc5s4)c3C2)nc1C(=O)O` (stereo partly shown) [Compound 120b]: the “Ymin (24 h)” value was “C (Ymin ≥ 70%)”.

Consider `Cc1cc(OCCCC2CCN(CCN3CCN(c4cc5c(cc4F)C(=O)N(C4CCC(=O)NC4=O)C5=O)CC3)CC2)ccc1-c1ccc(N2CCc3cccc(C(=O)Nc4nc5ccccc5s4)c3C2)nc1C(=O)O` (stereo not shown) [Compound 121], for which the “Ymin (24 h)” value is recorded as “A (Ymin < 50%)”.

With `Cc1c(OCCC[C@H]2CCN(CC(=O)N3CCN(c4cc5c(cc4F)C(=O)N(C4CCC(=O)NC4=O)C5=O)CC3)C2)cccc1-c1ccc(N2CCc3cccc(C(=O)Nc4nc5ccccc5s4)c3C2)nc1C(=O)O` (stereo partly drawn) [Compound 122a, 6-(8-(benzo[d]thiazol-2-ylcarbamoyl)-3,4-dihydroisoquinolin-2(1H)-yl)-3-(3-(3-((3S)-1-(2-(4-(2-(2,6-dioxopiperidin-3-yl)-6-fluoro-1,3-dioxoisoindolin-5-yl)piperazin-1-yl)-2-oxoethyl)pyrrolidin-3-yl)propoxy)-2-methylphenyl)picolinic acid], the “Ymin (24 h)” value is recorded as “B (50% ≤ Ymin < 70%)”.

For the molecule `Cc1c(OCCC[C@@H]2CCN(CC(=O)N3CCN(c4cc5c(cc4F)C(=O)N(C4CCC(=O)NC4=O)C5=O)CC3)C2)cccc1-c1ccc(N2CCc3cccc(C(=O)Nc4nc5ccccc5s4)c3C2)nc1C(=O)O` (stereo partly drawn) [Compound 122b, 6-[8-(1,3-benzothiazol-2-ylcarbamoyl)-3,4-dihydro-1H-isoquinolin-2-yl]-3-[3-[3-[(3R)-1-[2-[4-[2-(2,6-dioxo-3-piperidyl)-6-fluoro-1,3-dioxo-isoindolin-5-yl]piperazin-1-yl]-2-oxo-ethyl]pyrrolidin-3-yl]propoxy]-2-methyl-phenyl]pyridine-2-carboxylic acid], the “Ymin (24 h)” value is “B (50% ≤ Ymin < 70%)”.

For `Cc1c(OCCCCN2CCC(CN3CCN(c4cc5c(cc4F)C(=O)N(C4CCC(=O)NC4=O)C5=O)CC3)CC2)cccc1-c1ccc(N2CCc3cccc(C(=O)Nc4nc5ccccc5s4)c3C2)nc1C(=O)O` (stereo not shown) [Compound 123, 6-[8-(1,3-benzothiazol-2-ylcarbamoyl)-3,4-dihydro-1H-isoquinolin-2-yl]-3-[3-[4-[4-[[4-[2-(2,6-dioxo-3-piperidyl)-6-fluoro-1,3-dioxo-isoindolin-5-yl]piperazin-1-yl]methyl]-1-piperidyl]butoxy]-2-methyl-phenyl]pyridine-2-carboxylic acid], the “Ymin (24 h)” value was “B (50% ≤ Ymin < 70%)”.

Turning to `Cc1c(OCCCC2CCN([C@@H](C)C(=O)N3CCN(c4cc5c(cc4F)C(=O)N(C4CCC(=O)NC4=O)C5=O)CC3)CC2)cccc1-c1ccc(N2CCc3cccc(C(=O)Nc4nc5ccccc5s4)c3C2)nc1C(=O)O` (stereo partly drawn) [Compound 124a, 6-(8-(benzo[d]thiazol-2-ylcarbamoyl)-3,4-dihydroisoquinolin-2(1H)-yl)-3-(3-(3-(1-((2S)-1-(4-(2-(2,6-dioxopiperidin-3-yl)-6-fluoro-1,3-dioxoisoindolin-5-yl)piperazin-1-yl)-1-oxopropan-2-yl)piperidin-4-yl)propoxy)-2-methylphenyl)picolinic acid], the “Ymin (24 h)” value was “B (50% ≤ Ymin < 70%)”.

Take `Cc1c(OCCCC2CCN([C@H](C)C(=O)N3CCN(c4cc5c(cc4F)C(=O)N(C4CCC(=O)NC4=O)C5=O)CC3)CC2)cccc1-c1ccc(N2CCc3cccc(C(=O)Nc4nc5ccccc5s4)c3C2)nc1C(=O)O` (stereo partly drawn) [Compound 124b, 6-(8-(benzo[d]thiazol-2-ylcarbamoyl)-3,4-dihydroisoquinolin-2(1H)-yl)-3-(3-(3-(1-((2R)-1-(4-(2-(2,6-dioxopiperidin-3-yl)-6-fluoro-1,3-dioxoisoindolin-5-yl)piperazin-1-yl)-1-oxopropan-2-yl)piperidin-4-yl)propoxy)-2-methylphenyl)picolinic acid]: the “Ymin (24 h)” value was “B (50% ≤ Ymin < 70%)”.

With `Cc1c(OCCC(F)(F)C2CCN(CC(=O)N3CCN(c4cc5c(cc4F)C(=O)N(C4CCC(=O)NC4=O)C5=O)CC3)CC2)cccc1-c1ccc(N2CCc3cccc(C(=O)Nc4nc5ccccc5s4)c3C2)nc1C(=O)O` (stereo not shown) [Compound 126, 6-(8-(benzo[d]thiazol-2-ylcarbamoyl)-3,4-dihydroisoquinolin-2(1H)-yl)-3-(3-(3-(1-(2-(4-(2-(2,6-dioxopiperidin-3-yl)-6-fluoro-1,3-dioxoisoindolin-5-yl)piperazin-1-yl)-2-oxoethyl)piperidin-4-yl)-3,3-difluoropropoxy)-2-methylphenyl)picolinic acid], the “Ymin (24 h)” value is given as “B (50% ≤ Ymin < 70%)”.

On to `Cc1c(OCC(F)(F)CC2CCN(CC(=O)N3CCN(c4cc5c(cc4F)C(=O)N(C4CCC(=O)NC4=O)C5=O)CC3)CC2)cccc1-c1ccc(N2CCc3cccc(C(=O)Nc4nc5ccccc5s4)c3C2)nc1C(=O)O` (stereo not shown) [Compound 127, 6-(8-(benzo[d]thiazol-2-ylcarbamoyl)-3,4-dihydroisoquinolin-2(1H)-yl)-3-(3-(3-(1-(2-(4-(2-(2,6-dioxopiperidin-3-yl)-6-fluoro-1,3-dioxoisoindolin-5-yl)piperazin-1-yl)-2-oxoethyl)piperidin-4-yl)-2,2-difluoropropoxy)-2-methylphenyl)picolinic acid], for which the “Ymin (24 h)” value is listed as “B (50% ≤ Ymin < 70%)”.

With `Cc1c(O[C@@H](C)CCC2CCN(CC(=O)N3CCN(c4cc5c(cc4F)C(=O)N(C4CCC(=O)NC4=O)C5=O)CC3)CC2)cccc1-c1ccc(N2CCc3cccc(C(=O)Nc4nc5ccccc5s4)c3C2)nc1C(=O)O` (stereo partly drawn) [Compound 128a, 6-(8-(benzo[d]thiazol-2-ylcarbamoyl)-3,4-dihydroisoquinolin-2(1H)-yl)-3-(3-(((2S)-4-(1-(2-(4-(2-(2,6-dioxopiperidin-3-yl)-6-fluoro-1,3-dioxoisoindolin-5-yl)piperazin-1-yl)-2-oxoethyl)piperidin-4-yl)butan-2-yl)oxy)-2-methylphenyl)picolinic acid], the “Ymin (24 h)” value is “B (50% ≤ Ymin < 70%)”. For the same molecule, under “6 h”, the “Ymin (6 h)” value was “C (Ymin ≥ 70%)”.

Regarding `Cc1c(O[C@H](C)CCC2CCN(CC(=O)N3CCN(c4cc5c(cc4F)C(=O)N(C4CCC(=O)NC4=O)C5=O)CC3)CC2)cccc1-c1ccc(N2CCc3cccc(C(=O)Nc4nc5ccccc5s4)c3C2)nc1C(=O)O` (stereo partly drawn) [Compound 128b, 6-[8-(1,3-benzothiazol-2-ylcarbamoyl)-3,4-dihydro-1H-isoquinolin-2-yl]-3-[3-[(1R)-3-[1-[2-[4-[2-(2,6-dioxo-3-piperidyl)-6-fluoro-1,3-dioxo-isoindolin-5-yl]piperazin-1-yl]-2-oxo-ethyl]-4-piperidyl]-1-methyl-propoxy]-2-methyl-phenyl]pyridine-2-carboxylic acid], the “Ymin (24 h)” value is recorded as “B (50% ≤ Ymin < 70%)”.

For `Cc1c(O[C@H]2CC[C@H](CCCCN3CCN(c4cc5c(cc4F)C(=O)N(C4CCC(=O)NC4=O)C5=O)CC3)CC2)cccc1-c1ccc(N2CCc3cccc(C(=O)Nc4nc5ccccc5s4)c3C2)nc1C(=O)O` (stereo partly shown) [Compound 129a, 6-(8-(benzo[d]thiazol-2-ylcarbamoyl)-3,4-dihydroisoquinolin-2(1H)-yl)-3-(3-(((1s,4r)-4-(4-(4-(2-(2,6-dioxopiperidin-3-yl)-6-fluoro-1,3-dioxoisoindolin-5-yl)piperazin-1-yl)butyl)cyclohexyl)oxy)-2-methylphenyl)picolinic acid], the “Ymin (24 h)” value was “B (50% ≤ Ymin < 70%)”.

On to `Cc1c(OCC[C@H](C)C2CCN(CC(=O)N3CCN(c4cc5c(cc4F)C(=O)N(C4CCC(=O)NC4=O)C5=O)CC3)CC2)cccc1-c1ccc(N2CCc3cccc(C(=O)Nc4nc5ccccc5s4)c3C2)nc1C(=O)O` (stereo partly drawn) [Compound 130a, 6-[8-(1,3-benzothiazol-2-ylcarbamoyl)-3,4-dihydro-1H-isoquinolin-2-yl-3-[3-[(3S)-3-1-[2-[4-[2-(2,6-dioxo-3-piperidyl)-6-fluoro-1,3-dioxo-isoindolin-5-yl]piperazin-1-yl]-2-oxo-ethyl]-4-piperidyl]butoxy]-2-methyl-phenyl]pyridine-2-carboxylic acid], for which the “Ymin (24 h)” value is recorded as “B (50% ≤ Ymin < 70%)”.

For the molecule `Cc1c(OCC[C@@H](C)C2CCN(CC(=O)N3CCN(c4cc5c(cc4F)C(=O)N(C4CCC(=O)NC4=O)C5=O)CC3)CC2)cccc1-c1ccc(N2CCc3cccc(C(=O)Nc4nc5ccccc5s4)c3C2)nc1C(=O)O` (stereo partly shown) [Compound 130b], the “Ymin (24 h)” value is “C (Ymin ≥ 70%)”.
